From paper PMC2843552 (Cancer research, 2010)

Tests used:
MDA-MB-231 cells [1] = experiment: Laminin-based cell invasion assay; settings: 1 µM, 24 hours
BdsMC bladder cells = experiment: Apoptosis in normal cells; settings: normal cell line
[2] = system: MDA-MB-231 breast cancer cell line; experiment: Combinatorial effect with doxorubicin on cell viability; settings: 100–400 nM doxorubicin with 5000 nM compound; p < 0.05 over either agent alone
MDA-MB-231 cells [3] = experiment: Soft agar colony formation assay; settings: MDA-MB-231, soft agar, two weeks
[4] = system: STAT3 transcriptional activity in MDA-MB-231 cells; experiment: STAT3-dependent transcriptional luciferase assay; settings: 24 hours of treatment
[5] = system: STAT3 DNA-binding activity in MDA-MB-231 cells; experiment: STAT3 DNA-binding activity in nuclear extracts; settings: 24 hours treatment
WI-38 lung cells = experiment: Apoptosis in normal cells; settings: normal cell line
HPDE cells = experiment: Western blot of cleaved caspase-3 in normal cells; settings: concentrations as high as 10 µM; normal pancreatic cells
[6] = system: STAT1 DNA-binding activity in MDA-MB-231 cells; experiment: STAT1 DNA-binding activity in nuclear extracts; settings: 24 hours treatment
[7] = system: P-STAT3 in PANC-1 pancreatic cancer cells; experiment: Western blot of P-STAT3; settings: 2.5 and 5 µM, 24 hours
HMEC cells = experiment: Western blot of cleaved caspase-3 in normal cells; settings: concentrations as high as 10 µM; normal breast cells
[8] = system: STAT3 DNA-binding activity in PANC-1 cells; experiment: STAT3 DNA-binding activity in nuclear extracts; settings: 24 hours treatment
[9] = system: P-STAT3 in MDA-MB-231 breast cancer cells; experiment: Western blot of P-STAT3; settings: 2.5 and 5 µM, 24 hours
JAK2 = experiment: HTScan JAK2 Kinase Assay; assay type: biochemical, human; settings: 5 µM; over a DMSO control; P<0.05

caspase-3 cleavage (HPDE cells)	caspase-3 cleavage (HMEC cells)	reduction in JAK2 kinase activity (JAK2)	SMILES	invasive capacity (MDA-MB-231 cells [1])	apoptosis (BdsMC bladder cells)	combination effect with doxorubicin on cell viability [2]	reduction of overall colony numbers over that of curcumin (MDA-MB-231 cells [3])	luciferase activity [4]	STAT3 DNA-binding activity [5]	apoptosis (WI-38 lung cells)	STAT1 DNA-binding activity [6]	levels of P-STAT3 [7]	STAT3 DNA-binding activity [8]	levels of P-STAT3 [9]
unable to induce caspase-3 cleavage	unable to induce caspase-3 cleavage	approximately 60%	COc1ccc(/C=C/C(=O)C(C)(C)C(=O)/C=C/c2ccc(OC)c(OC)c2)cc1OC [FLLL31]	substantially reduced	no evidence of apoptosis	synergistic	approximately 40%	reduced luciferase activity in a dose-dependent fashion	dropped sharply	no evidence of apoptosis	slightly enhanced	effectively reduced	dropped sharply	effectively reduced
–	–	–	COc1cc(/C=C/C(=O)CC(=O)/C=C/c2ccc(O)c(OC)c2)ccc1O [curcumin, reference compound]	comparatively minimal impact	–	–	–	–	–	–	–	–	–	–
